Where no end group is shown, it is not given here.
Legend:
[1] = test system: CD4^+ T cells of C. burnetii RSA 439 infected C57BL/6 mice; type: cell-based
[2] = test system: CD4^+ T cells of PI-WCV vaccinated C57BL/6 mice; details: 20 h
[3] = test system: CD4^+ T cells of recombinant protein vaccinated C57BL/6 mice; type: cell-based
[4] = target: T1, H-2 I-A^b (purified IA^b MHC class II) (Mus musculus, UniProt P14434+P14483); assay: biochemical; type: binding
T1 construct: endogenous in cells; host or cells: mouse B-cell lymphoma LB27.4
T1 sequence (P14434 24-256): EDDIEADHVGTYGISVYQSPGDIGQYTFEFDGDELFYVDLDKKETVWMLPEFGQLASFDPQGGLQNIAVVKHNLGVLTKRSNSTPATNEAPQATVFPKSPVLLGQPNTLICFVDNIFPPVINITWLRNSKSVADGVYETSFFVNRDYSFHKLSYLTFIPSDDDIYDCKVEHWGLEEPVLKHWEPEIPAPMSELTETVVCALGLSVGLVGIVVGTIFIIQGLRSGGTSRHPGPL
T1 sequence (P14483 28-265): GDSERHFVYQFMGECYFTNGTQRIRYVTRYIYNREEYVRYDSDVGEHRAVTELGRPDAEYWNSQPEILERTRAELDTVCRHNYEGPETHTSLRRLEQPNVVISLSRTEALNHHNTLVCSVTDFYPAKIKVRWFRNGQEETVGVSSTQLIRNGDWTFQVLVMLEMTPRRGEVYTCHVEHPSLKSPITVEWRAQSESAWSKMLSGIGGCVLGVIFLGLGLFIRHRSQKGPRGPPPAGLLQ

[5] = test system: IgG antibody production against CBU 0383, CBU 1157, CBU 1910; parameters: species or system C57BL/6 mice; details: mouse, in vivo

Sequence	SI-Infection [1]	SI-WCV vaccination [2]	SI-rAgs [3]	IC50 [4] [nM]	IgG antibodies against recombinant proteins after peptide immunization alone [5]
AKKLFNDPASPVAGN [CBU191081-95]	0.79±0.44	0.63±0.31	4.8	–	–
DLPAAIVDAIAPQEG [CBU1645138-152]	0.67±0.34	0.80±0.62	3	–	–
DLRYHAPIYGAVHPR [CBU 1157_177–191]	–	3.67±1.53	–	193	–
ENAKKLFNDPASPVA [CBU191079-93]	0.93±0.35	0.93±0.84	5.6	–	–
HYLVNHPEVLVEASQ [CBU 1910_45–59]	–	23.77±13.0	–	293	–
IRNKLKIQATINNAK [CBU038398-112]	0.43±0.57	1.07±0.51	2.22	–	–
IRRLVGSFPAEERIG [CBU1645270-284]	1.53±0.74	3.10±1.15	2.7	–	–
KLFNDPASPVAGNPH [CBU 1910_83–97]	–	3.67±1.12	–	351	–
LSLMLNYPNSADRYY [CBU 1157_108–122]	–	4.83±2.44	–	1040	–
PWRYIRSFPILASSG [CBU 1157_63–77]	–	6.80±1.25	–	34	–
RDSFNNFDASIISKY [CBU 0383_69–83]	–	5.33±3.10	–	507	–
RGPWRYIRSFPILAS [CBU115761-75]	0.57±0.34	1.87±1.67	7.17	–	–
RLVGSFPAEERIGRT [CBU 1645_272–286]	–	3.50±0.96	–	1860	–
RNNYRDSFNNFDASI [CBU038365-79]	3.25±2.21	5.57±1.79	3.06	–	–
RYHAPIYGAVHPRWL [CBU1157179-193]	2.37±1.05	1.97±0.75	4.37	–	–
RYPNEPSRFEPKHID [CBU164510-24]	1.56±1.29	2.03±1.27	2.38	–	–
VHHYLVNHPEVLVEA [CBU 1910_43–57]	28.27±9.54	22.73±12.51	15.9	–	did not generate detectable antibodies
YDSLTTPTASVCQSE [CBU 1645_196–210]	–	4.13±1.01	–	620	–
YIWHFVDGHPIQNQW [CBU0383127-141]	0.79±0.28	1.33±1.43	16.22	–	–
YVYDSLTTPTASVCQ [CBU1645194-208]	0.43±0.17	0.67±0.25	6	–	–
